Test results: patent US8367116B2, “Buoyant polymer particles for delivery of therapeutic agents to the central nervous system” (Seacoast Neuroscience, Inc., priority 2002, dated 2013)

Key:
[1] = tested on: corticospinal tract axons; test: Severed corticospinal tract model, inosine infused into the motor cortex, axon tracing; assay type: in vivo, rats; details: after 14 days of treatment
Source text: In one model, one side of the corticospinal tract in rats is severed as it courses through the brainstem. Inosine is then infused directly into the motor cortex of the brain, the site of origin for those axons descending into the non-injured side of the corticospinal tract. After 14 days of treatment, newly grown axon branches are traced by injecting a dye into the treated nerve cells in the cortex. Animals are then sacrificed and the spinal cord examined for histology evidence of new axon growth. […] These new axonal branches then continued to descend down the injured side of the corticospinal tract, effectively replacing severed axons with new ones. […] The number of collateral (new) axons ranged up to 2,500 per treated animal, compared to 28-170 axons seen in control animals.

[2] = tested on: rats with unilateral cortical infarcts (stroke); details: cited from earlier work
[3] = tested on: rat middle cerebral artery occlusion (MCAo) stroke model; test: Rat MCAo stroke model, drugs delivered into the ventricle (CSF) by osmotic pump (FIG. 4, FIG. 5); assay type: in vivo, Sprague-Dawley rat; details: given within the CSF
Description: The parietal branch of the middle cerebral artery of the Sprague-Dawley rat is permanently occluded with a 10-0 nylon suture. The common carotid arteries are occluded temporarily for one hour. All drugs and vehicle are given beginning two hours post ischemia. Rats are sacrificed 24-hours later and the size of the infarct measured as a percent infarction of the total volume of the brain (mm^3) using imaging analysis. […], drugs are administered into the ventricle using an Alza osmotic pump (#20010) at a flow rate of 8 ul/hr over 24 hours.
Animals were treated with vehicle (n=23), Antioxidant (n=8), Prodrug (n=7) or an NMDA antagonist (n=7).

[4] = cited from earlier work
[5] = adult rats with unilateral cortical infarcts

Row | Compound | collateral sprouting of axons from uninjured to injured side of corticospinal tract ([1]; almost all treated animals) | number of collateral (new) axons per treated animal ([1]; control animals 28-170 axons) | GAP-43 stained newly growing axons on the denervated side ([2]; FIG. 7 B, E, after stroke) | axons crossing from undamaged side of brain to denervated side of spinal cord ([2]; FIG. 7 D, after stroke) | new projections to denervated areas of midbrain and spinal cord [2, 5] | performance on behavioral measures [2, 5] | recovery of limb function ([2]; intravenous administration, same animal model) | dose response on infarct [3] | citicholine dose taken up into brain tissue ([4]; administered i.v.) | citicholine dose penetrating into brain tissue ([4]; administered orally) | initial dose found in the brain ([4]; given through the blood stream)
1 | OC[C@H]1O[C@@H](n2cnc3c(O)ncnc32)[C@H](O)[C@@H]1O [Inosine] | extensive collateral sprouting of axons | up to 2,500 | many | causes many axons (red) to cross over | stimulated neurons on the undamaged side of the brain to extend new projections | improved performance | little or no significant recovery |  |  |  | 
2 | C[N+](C)(C)CCOP(=O)(O)OP(=O)([O-])OC[C@H]1O[C@@H](n2ccc(N)nc2=O)[C@H](O)[C@@H]1O [Citicholine, Cytidine-5′-diphosphocholine] |  |  |  |  |  |  |  | dose response effect | about 2% | about 0.5% | less than 1%
